Values of other authors as cited in patent publication US8603436B2, “Methods and compositions for targeted drug delivery” (priority 2000, dated 2013).
Like-named read-outs stand apart in the source and are kept apart here. One block for each molecule: values may come before it. Square brackets hold non-standard residues; d marks the D form. Peptide text beside a SMILES is read from it. * marks the point of attachment. X1 = NCCCC[C@H](NC(=O)[C@H](CS)NC(=O)[C@H](CCCCN)NC(=O)[C@@H](N)CNC(=O)C*)C(N)=O; NMeF = CN[C@@H](Cc1ccccc1)C(=O)O; hCys = N[C@@H](CCS)C(=O)O

Assays:
[1] = system: ssr subtypes present in rat pancreas carcinoma membranes; settings: free (unlabeled) peptide
tumor [2] = settings: tumor models and individual patients
glioblastoma cells = settings: in vitro
tumor [3] = settings: in vivo

Molecule: boronated protoporphyrin [BOPP]
subcellular accumulation (lysosomes): accumulate in lysosomes, but not in mitochondria or the nucleus

Molecule: CC(C)[C@@H]1NC(=O)[C@H](CCCCN)NC(=O)[C@@H](Cc2c[nH]c3ccccc23)NC(=O)[C@H](Cc2ccc(O)cc2)NC(=O)[C@H](Cc2ccccc2)N(C)C(=O)[C@H](CCSCC(=O)NC[C@H](N)C(=O)N[C@@H](CCCCN)C(=O)N[C@@H](CS)C(=O)N[C@@H](CCCCN)C(N)=O)NC1=O [depreotide] (cyclo([hCys](X1)[NMeF]Y[dW]KV))
apparent affinity of the free peptide compared with octreotide [1]: one order of magnitude lower

tumor enrichment factor (tumor [2]): ≤ 3
concentration in lysosomes relative to cytosolic concentration (glioblastoma cells): 100 fold lower
concentration in microsomes relative to cytosolic concentration (glioblastoma cells): 125 fold lower
concentration in nuclei relative to cytosolic concentration (glioblastoma cells): 80 fold lower
time to maximum uptake into whole glioblastoma cells (glioblastoma cells): 1 h
cytosolic concentration (glioblastoma cells; at maximum uptake): 250 ng per million of glioma cells
Molecule: N[C@@H](Cc1ccc(B(O)O)cc1)C(=O)O [BPA, p-boronophenylalanine]

tumor enrichment factor (tumor [3]): ~100
Molecule: beta-5-o-carboranyl-2′-deoxyuridine [D-CDU]
